# Data taken from patent US20170190671A1, “BIS(ARYL)CATECHOL DERIVATIVES AS HERBICIDES” (E I DU PONT DE NEMOURS AND COMPANY, priority 2014, published 2017).
# How the values were obtained:
# Format in all cases: in vivo
# [1] = tested on: Italian ryegrass (Lolium multiflorum); assay: Test C postemergence; conditions: Lolium multiflorum, post-emergence, 336 h, Postemergence, scale 0 to 100, read-out: Plant response rating, Ryegrass, Italian
# Outline: (§1)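 Visual ratings (0 none to 100 complete control) were made 13 to 15 days after treatment, relative to controls. Test chemicals, formulated in a non-phytotoxic solvent mixture with surfactant, were applied in the greenhouse preemergence to seeded loam-sand soil or postemergence to plants 2 to 18 cm tall.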
# [2] = tested on: barnyardgrass (Echinochloa crus-galli); assay: Test C postemergence; conditions: Echinochloa crus-galli, post-emergence, Postemergence, scale 0 to 100, read-out: Plant response rating, Barnyardgrass
# Outline: as §1
# [3] = tested on: blackgrass (Alopecurus myosuroides); assay: Test C postemergence; conditions: Alopecurus myosuroides, post-emergence, 336 h, Postemergence, scale 0 to 100, read-out: Plant response rating, Blackgrass
# Outline: as §1
# corn (Zea mays) = assay: Test C postemergence; conditions: Zea mays, post-emergence, 336 h, Postemergence, scale 0 to 100
# Outline: as §1
# [4] = tested on: giant foxtail (Setaria faberii); assay: Test C postemergence; conditions: Setaria faberi, post-emergence, 336 h, Postemergence, scale 0 to 100, read-out: Plant response rating, Foxtail, Giant
# Outline: as §1
# [5] = tested on: johnsongrass (Sorghum halepense); assay: Test C postemergence; conditions: Sorghum halepense, post-emergence, 336 h, Postemergence, scale 0 to 100, read-out: Plant response rating, Johnsongrass
# Outline: as §1
# [6] = tested on: lambsquarters (Chenopodium album); assay: Test C postemergence; conditions: Chenopodium album, post-emergence, 336 h, Postemergence, scale 0 to 100, read-out: Plant response rating, Lambsquarters
# Outline: as §1
# [7] = tested on: large (Lg) crabgrass (Digitaria sanguinalis); assay: Test C postemergence; conditions: Digitaria sanguinalis, post-emergence, 336 h, Postemergence, scale 0 to 100, read-out: Plant response rating, Crabgrass, Large
# Outline: as §1
# [8] = tested on: morningglory (Ipomoea coccinea); assay: Test C postemergence; conditions: Ipomoea, post-emergence, 336 h, Postemergence, scale 0 to 100, read-out: Plant response rating, Morningglory
# Outline: as §1
# [9] = tested on: oilseed rape (Brassica napus); assay: Test C postemergence; conditions: Brassica napus, post-emergence, Postemergence, scale 0 to 100, read-out: Plant response rating, Oilseed Rape
# Outline: as §1
# [10] = tested on: ragweed (common ragweed, Ambrosia elatior); assay: Test C postemergence; conditions: Ambrosia artemisiifolia, post-emergence, 336 h, Postemergence, scale 0 to 100, read-out: Plant response rating, Ragweed
# Outline: as §1
# soybean (Glycine max) = assay: Test C postemergence; conditions: Glycine max, post-emergence, Postemergence, scale 0 to 100, read-out: Plant response rating, Soybean
# Outline: as §1
# [11] = tested on: velvetleaf (Abutilon theophrasti); assay: Test C postemergence; conditions: Abutilon theophrasti, post-emergence, Postemergence, scale 0 to 100, read-out: Plant response rating, Velvetleaf
# Outline: as §1
# [12] = tested on: winter wheat (Triticum aestivum); assay: Test C postemergence; conditions: Triticum aestivum, post-emergence, 336 h, Postemergence, scale 0 to 100, read-out: Plant response rating, Wheat
# Outline: as §1
# [13] = tested on: arrowleaf sida (Sida rhombifolia); assay: Test E preemergence; conditions: scale 0 to 100
# Outline: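 Preemergence: seeds in silt loam treated with compound in non-phytotoxic solvent with surfactant. Postemergence: plants at 1- to 4-leaf stage (2–18 cm) in peat-based medium sprayed likewise. Greenhouse 14–21 days, then visual rating vs controls, 0 (no effect) to 100 (complete control).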
compound,measurement,setting,value
"Fc1cccc(Oc2ncc(C(F)(F)F)cn2)c1Oc1ncc(Cl)cn1 [Compound 42, 5-chloro-2-[2-fluoro-6-[[5-(trifluoromethyl)-2-pyrimidinyl]oxy]phenoxy]pyrimidine]",pest or weed control at 31 g/ha,[1]; 31 g ai/ha,0%
same,pest or weed control at 62 g/ha,[1]; 62 g ai/ha,10%
same,pest or weed control at 125 g/ha,[1]; 125 g ai/ha,35%
same,pest or weed control at 16 g/ha,[2]; 16 g ai/ha,5%
same,pest or weed control at 31 g/ha,[2]; 31 g ai/ha,5%
same,pest or weed control at 62 g/ha,[2]; 62 g ai/ha,10%
same,pest or weed control at 125 g/ha,[2]; 125 g ai/ha,20%
same,pest or weed control at 16 g/ha,[3]; 16 g ai/ha,10%
same,pest or weed control at 31 g/ha,[3]; 31 g ai/ha,20%
same,pest or weed control at 62 g/ha,[3]; 62 g ai/ha,20%
same,pest or weed control at 125 g/ha,[3]; 125 g ai/ha,80%
same,"Corn plant response rating (crop injury, 0 = no effect, 100 = complete kill) at 16 g/ha",corn (Zea mays); 16 g ai/ha,5%
same,"Corn plant response rating (crop injury, 0 = no effect, 100 = complete kill) at 31 g/ha",corn (Zea mays); 31 g ai/ha,5%
same,"Corn plant response rating (crop injury, 0 = no effect, 100 = complete kill) at 62 g/ha",corn (Zea mays); 62 g ai/ha,10%
same,"Corn plant response rating (crop injury, 0 = no effect, 100 = complete kill) at 125 g/ha",corn (Zea mays); 125 g ai/ha,25%
same,pest or weed control at 16 g/ha,[4]; 16 g ai/ha,30%
same,pest or weed control at 31 g/ha,[4]; 31 g ai/ha,30%
same,pest or weed control at 62 g/ha,[4]; 62 g ai/ha,35%
same,pest or weed control at 125 g/ha,[4]; 125 g ai/ha,35%
same,pest or weed control at 16 g/ha,[5]; 16 g ai/ha,10%
same,pest or weed control at 31 g/ha,[5]; 31 g ai/ha,10%
same,pest or weed control at 62 g/ha,[5]; 62 g ai/ha,10%
same,pest or weed control at 125 g/ha,[5]; 125 g ai/ha,40%
same,pest or weed control at 16 g/ha,[6]; 16 g ai/ha,80%
same,pest or weed control at 31 g/ha,[6]; 31 g ai/ha,80%
same,pest or weed control at 62 g/ha,[6]; 62 g ai/ha,90%
same,pest or weed control at 125 g/ha,[6]; 125 g ai/ha,95%
same,pest or weed control at 16 g/ha,[7]; 16 g ai/ha,10%
same,pest or weed control at 31 g/ha,[7]; 31 g ai/ha,20%
same,pest or weed control at 62 g/ha,[7]; 62 g ai/ha,15%
same,pest or weed control at 125 g/ha,[7]; 125 g ai/ha,40%
same,pest or weed control at 31 g/ha,[8]; 31 g ai/ha,70%
same,pest or weed control at 62 g/ha,[8]; 62 g ai/ha,75%
same,pest or weed control at 125 g/ha,[8]; 125 g ai/ha,85%
same,plant injury at 31 g/ha,[9]; 31 g ai/ha,50%
same,plant injury at 62 g/ha,[9]; 62 g ai/ha,70%
same,plant injury at 125 g/ha,[9]; 125 g ai/ha,85%
same,pest or weed control at 31 g/ha,[10]; 31 g ai/ha,65%
same,pest or weed control at 62 g/ha,[10]; 62 g ai/ha,70%
same,pest or weed control at 125 g/ha,[10]; 125 g ai/ha,65%
same,plant injury at 31 g/ha,soybean (Glycine max); 31 g ai/ha,55%
same,plant injury at 62 g/ha,soybean (Glycine max); 62 g ai/ha,65%
same,plant injury at 125 g/ha,soybean (Glycine max); 125 g ai/ha,85%
same,pest or weed control at 31 g/ha,[11]; 31 g ai/ha,60%
same,pest or weed control at 62 g/ha,[11]; 62 g ai/ha,70%
same,pest or weed control at 125 g/ha,[11]; 125 g ai/ha,85%
same,plant injury at 31 g/ha,[12]; 31 g ai/ha,0%
same,plant injury at 62 g/ha,[12]; 62 g ai/ha,0%
same,plant injury at 125 g/ha,[12]; 125 g ai/ha,10%
same,"Plant response rating, Arrowleaf Sida",[13]; 16 g ai/ha,100
same,"Plant response rating, Arrowleaf Sida",[13]; 31 g ai/ha,98
same,"Plant response rating, Arrowleaf Sida",[13]; 62 g ai/ha,100
same,"Plant response rating, Arrowleaf Sida",[13]; 125 g ai/ha,100
